Test results from the NIST ThermoML archive (doi:10.1021/je050050p).

Assay: xn = mol fraction of the nth substance listed
Conditions: Liquid, Vibrating tube method

CN(C)C=O [dimethylformamide] + O=C=O
Conditions | mass density [kg/m3]
323.07 K, 21005 kPa, x2 = 0.6235 | 955.83
323.07 K, 22029 kPa, x2 = 0.6235 | 957.78
323.07 K, 23012 kPa, x2 = 0.6235 | 959.63
323.07 K, 24020 kPa, x2 = 0.6235 | 961.47
323.07 K, 24979 kPa, x2 = 0.6235 | 963.24
323.08 K, 11047 kPa, x2 = 0.8091 | 888.99
323.08 K, 12004 kPa, x2 = 0.8091 | 893.47
323.08 K, 13042 kPa, x2 = 0.8091 | 898.2
323.08 K, 14006 kPa, x2 = 0.8091 | 902.33
323.08 K, 15005 kPa, x2 = 0.8091 | 906.31
323.08 K, 16016 kPa, x2 = 0.8091 | 910.13
323.08 K, 16989 kPa, x2 = 0.8091 | 913.66
323.08 K, 18023 kPa, x2 = 0.8091 | 917.28
323.08 K, 18997 kPa, x2 = 0.8091 | 920.57
323.08 K, 20018 kPa, x2 = 0.8091 | 923.89
323.08 K, 21002 kPa, x2 = 0.8091 | 927.01
323.08 K, 22041 kPa, x2 = 0.8091 | 930.23
323.08 K, 22980 kPa, x2 = 0.8091 | 933.13
323.08 K, 23989 kPa, x2 = 0.8091 | 936
323.08 K, 25049 kPa, x2 = 0.8091 | 939.12
323.09 K, 7005 kPa, x2 = 0.4268 | 942.62
323.09 K, 7062 kPa, x2 = 0.4461 | 942.94
323.09 K, 7958 kPa, x2 = 0.4461 | 944.11
323.09 K, 8007 kPa, x2 = 0.4268 | 943.86
323.09 K, 9005 kPa, x2 = 0.4268 | 944.97
323.09 K, 9022 kPa, x2 = 0.4461 | 945.39
323.09 K, 9996 kPa, x2 = 0.4268 | 946.2
323.09 K, 9998 kPa, x2 = 0.4461 | 946.6
323.09 K, 11005 kPa, x2 = 0.4461 | 947.83
323.09 K, 11020 kPa, x2 = 0.4268 | 947.43
323.09 K, 12000 kPa, x2 = 0.4268 | 948.52
323.09 K, 12017 kPa, x2 = 0.9311 | 797.65
323.09 K, 12039 kPa, x2 = 0.4461 | 949.09
323.09 K, 13002 kPa, x2 = 0.4461 | 950.23
323.09 K, 13010 kPa, x2 = 0.9311 | 810.33
323.09 K, 13035 kPa, x2 = 0.4268 | 949.74
323.09 K, 14007 kPa, x2 = 0.4268 | 950.83
323.09 K, 14007 kPa, x2 = 0.4461 | 951.42
323.09 K, 14016 kPa, x2 = 0.9311 | 821.48
323.09 K, 14996 kPa, x2 = 0.4461 | 952.54
323.09 K, 15005 kPa, x2 = 0.9311 | 831.25
323.09 K, 15007 kPa, x2 = 0.4268 | 951.95
323.09 K, 15987 kPa, x2 = 0.4268 | 952.99
323.09 K, 16001 kPa, x2 = 0.4461 | 953.67
323.09 K, 16036 kPa, x2 = 0.9311 | 840.41
323.09 K, 16984 kPa, x2 = 0.4268 | 954.11
323.09 K, 17004 kPa, x2 = 0.4461 | 954.83
323.09 K, 17025 kPa, x2 = 0.9311 | 848.46
323.09 K, 17998 kPa, x2 = 0.4268 | 955.17
323.09 K, 18000 kPa, x2 = 0.4461 | 955.98
323.09 K, 18021 kPa, x2 = 0.9311 | 855.96
323.09 K, 18994 kPa, x2 = 0.4461 | 957.05
323.09 K, 19034 kPa, x2 = 0.9311 | 863.06
323.09 K, 19040 kPa, x2 = 0.4268 | 956.31
323.09 K, 20010 kPa, x2 = 0.9311 | 869.5
323.09 K, 20031 kPa, x2 = 0.4461 | 958.19
323.09 K, 20050 kPa, x2 = 0.4268 | 957.38
323.09 K, 21020 kPa, x2 = 0.4461 | 959.24
323.09 K, 21029 kPa, x2 = 0.9311 | 875.82
323.09 K, 21048 kPa, x2 = 0.4268 | 958.44
323.09 K, 22009 kPa, x2 = 0.9311 | 881.6
323.09 K, 22029 kPa, x2 = 0.4461 | 960.34
323.09 K, 22041 kPa, x2 = 0.4268 | 959.46
323.09 K, 23008 kPa, x2 = 0.4461 | 961.38
323.09 K, 23037 kPa, x2 = 0.4268 | 960.49
323.09 K, 23050 kPa, x2 = 0.9311 | 887.36
323.09 K, 23995 kPa, x2 = 0.9311 | 892.39
323.09 K, 24019 kPa, x2 = 0.4461 | 962.44
323.09 K, 24061 kPa, x2 = 0.4268 | 961.52
323.09 K, 25007 kPa, x2 = 0.4461 | 963.48
323.09 K, 25036 kPa, x2 = 0.4268 | 962.52
323.09 K, 25056 kPa, x2 = 0.9311 | 897.78
323.1 K, 7005 kPa, x2 = 0.4502 | 942.87
323.1 K, 7058 kPa, x2 = 0.4068 | 942.59
323.1 K, 8007 kPa, x2 = 0.4068 | 943.65
323.1 K, 8009 kPa, x2 = 0.4502 | 944.1
323.1 K, 9003 kPa, x2 = 0.4502 | 945.32
323.1 K, 9034 kPa, x2 = 0.4068 | 944.82
323.1 K, 10001 kPa, x2 = 0.4068 | 945.91
323.1 K, 10005 kPa, x2 = 0.4502 | 946.57
323.1 K, 11002 kPa, x2 = 0.4502 | 947.78
323.1 K, 11013 kPa, x2 = 0.4068 | 947.04
323.1 K, 12000 kPa, x2 = 0.4068 | 948.11
